± gives the standard deviation of the averaged measurements.
Tests used:
[1] = compound: C[C@H](CN(C)C)Oc1nc(Nc2cc3cccc(Cl)c3cn2)cnc1C#N; assay: surviving fraction relative to DMSO-only wells; higher = less growth inhibition; details: exposure time: 5 days
Procedure, shortened: (§1)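 After seeding at 250–500 cells per well in 384-well plates and a 24-hour wait, log-phase tumour cell lines were exposed without interruption for five days to inhibitors at 0.5, 1, 5, 10, 50, 100, 500 and 1000 nM. CellTiter-Glo luminescence was recorded after 10 minutes at room temperature. Viability is reported as surviving fraction, the luminescence normalised to the median of DMSO-only wells.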

CABOZANTINIB = compound: COc1cc2nccc(Oc3ccc(NC(=O)C4(C(=O)Nc5ccc(F)cc5)CC4)cc3)c2cc1OC [CABOZANTINIB]; assay: as above; details: exposure time: 5 days
Procedure, shortened: as §1

Row | Test System | surviving fraction ([1]; 0.5 nM) | surviving fraction ([1]; 1 nM) | surviving fraction ([1]; 5 nM) | surviving fraction ([1]; 10 nM) | surviving fraction ([1]; 50 nM) | surviving fraction ([1]; 100 nM) | surviving fraction ([1]; 500 nM) | surviving fraction ([1]; 1000 nM) | surviving fraction (CABOZANTINIB; 0.5 nM) | surviving fraction (CABOZANTINIB; 1 nM) | surviving fraction (CABOZANTINIB; 5 nM) | surviving fraction (CABOZANTINIB; 10 nM) | surviving fraction (CABOZANTINIB; 50 nM) | surviving fraction (CABOZANTINIB; 100 nM) | surviving fraction (CABOZANTINIB; 500 nM) | surviving fraction (CABOZANTINIB; 1000 nM)
1 | CME SYNOVIAL | 1.21 ± 0.15 | 1.3 ± 0.16 | 1.28 ± 0.11 | 1.36 ± 0.18 | 1.32 ± 0.11 | 1.47 ± 0.17 | 1.14 ± 0.059 | 1.02 ± 0.15 | 1.23 ± 0.11 | 1.24 ± 0.16 | 1.24 ± 0.11 | 1.21 ± 0.042 | 1.2 ± 0.046 | 1.19 ± 0.15 | 1.1 ± 0.071 | 1.01 ± 0.12
2 | T47D BREAST | 1.02 ± 0.043 | 1.06 ± 0.044 | 1.04 ± 0.027 | 1.03 ± 0.032 | 1.1 ± 0.046 | 1.14 ± 0.029 | 0.919 ± 0.063 | 0.766 ± 0.024 | 0.969 ± 0.016 | 0.988 ± 0.028 | 1.02 ± 0.038 | 1.04 ± 0.075 | 1.059 ± 0.0083 | 1.07 ± 0.021 | 1.07 ± 0.034 | 1.03 ± 0.022
3 | MDAMB436 BREAST | 0.927 ± 0.072 | 0.927 ± 0.15 | 0.963 ± 0.14 | 0.959 ± 0.13 | 0.953 ± 0.11 | 0.808 ± 0.14 | 0.641 ± 0.1 | 0.451 ± 0.077 | 0.95 ± 0.067 | 0.94 ± 0.04 | 1 ± 0.17 | 0.973 ± 0.029 | 1.04 ± 0.096 | 0.951 ± 0.097 | 1.04 ± 0.058 | 1.02 ± 0.11
4 | CAL51 BREAST | 0.939 ± 0.051 | 0.961 ± 0.065 | 1.03 ± 0.025 | 0.922 ± 0.047 | 0.982 ± 0.062 | 0.855 ± 0.053 | 0.272 ± 0.049 | 0.123 ± 0.037 | 1.01 ± 0.08 | 0.953 ± 0.025 | 1.04 ± 0.041 | 0.954 ± 0.062 | 1.06 ± 0.056 | 1.07 ± 0.022 | 0.944 ± 0.091 | 0.89 ± 0.015
5 | HOS BONE | 1.01 ± 0.014 | 1.01 ± 0.024 | 0.996 ± 0.018 | 0.9907 ± 0.005 | 1.01 ± 0.035 | 1.002 ± 0.01 | 0.619 ± 0.023 | 0.16 ± 0.017 | 1.02 ± 0.011 | 1.001 ± 0.001 | 1.02 ± 0.015 | 0.9757 ± 0.008 | 1.015 ± 0.0092 | 0.984 ± 0.02 | 0.924 ± 0.019 | 0.89 ± 0.014
6 | 143B BONE | 0.939 ± 0.1 | 1.08 ± 0.053 | 1.08 ± 0.035 | 1.05 ± 0.012 | 1.026 ± 0.0092 | 1.05 ± 0.024 | 0.519 ± 0.031 | 0.078 ± 0.021 | 1.07 ± 0.08 | 1.03 ± 0.023 | 1.02 ± 0.013 | 1.05 ± 0.02 | 1.01 ± 0.038 | 1.09 ± 0.059 | 1.048 ± 0.0092 | 1.06 ± 0.031
7 | CAL72 BONE | 1.06 ± 0.1 | 1.08 ± 0.13 | 1.06 ± 0.099 | 1.03 ± 0.12 | 1.09 ± 0.1 | 0.981 ± 0.12 | 0.402 ± 0.076 | 0.137 ± 0.037 | 1.03 ± 0.082 | 1.03 ± 0.093 | 1.07 ± 0.11 | 1.06 ± 0.079 | 1.09 ± 0.095 | 1.14 ± 0.019 | 1.11 ± 0.12 | 1.08 ± 0.11
8 | SUM149.B1*.S BREAST | 1.06 ± 0.066 | 1.06 ± 0.023 | 1.03 ± 0.055 | 1.09 ± 0.029 | 1.11 ± 0.029 | 1.05 ± 0.029 | 0.941 ± 0.026 | 0.492 ± 0.024 | 1.03 ± 0.07 | 1.02 ± 0.034 | 0.998 ± 0.046 | 1.04 ± 0.025 | 1.039 ± 0.0013 | 0.979 ± 0.037 | 0.992 ± 0.029 | 0.967 ± 0.021
9 | CHLA90 AUTONOMIC GANGLIA | 0.977 ± 0.064 | 0.961 ± 0.058 | 0.913 ± 0.041 | 0.912 ± 0.034 | 0.94 ± 0.048 | 0.904 ± 0.075 | 0.46 ± 0.084 | 0.236 ± 0.048 | 0.917 ± 0.024 | 0.936 ± 0.052 | 0.9 ± 0.065 | 0.863 ± 0.016 | 0.913 ± 0.023 | 0.907 ± 0.072 | 0.868 ± 0.11 | 0.856 ± 0.097
10 | YAMATO SYNOVIAL | 1.12 ± 0.038 | 1.24 ± 0.086 | 1.17 ± 0.05 | 1.2 ± 0.13 | 1.18 ± 0.067 | 1.18 ± 0.037 | 0.806 ± 0.052 | 0.622 ± 0.074 | 1.19 ± 0.048 | 1.16 ± 0.076 | 1.11 ± 0.04 | 1.01 ± 0.028 | 0.826 ± 0.044 | 0.678 ± 0.018 | 0.374 ± 0.0056 | 0.373 ± 0.02
11 | LM7 BONE | 0.96 ± 0.013 | 0.916 ± 0.015 | 0.945 ± 0.068 | 1.02 ± 0.054 | 1.06 ± 0.086 | 0.99 ± 0.099 | 0.835 ± 0.11 | 0.528 ± 0.077 | 1.03 ± 0.091 | 0.998 ± 0.039 | 1.07 ± 0.035 | 1.04 ± 0.053 | 1.06 ± 0.11 | 1.09 ± 0.019 | 0.932 ± 0.015 | 0.889 ± 0.036

Reference: the supplement of paper PMC6045584
